Reference: the CheMixHub viscosity set
Where “and” joins values, the source holds several entries; their conditions need not be identical. Equal values may be shown once.

Test: xn = mol fraction of the nth substance listed

C1CCOC1 + CC(C)O
101 kPa
Details | viscosity
298.15 K, x1 = 0.05 | 1.706 mPa·s
298.15 K, x1 = 0.1 | 1.445 mPa·s
298.15 K, x1 = 0.15 | 1.248 mPa·s
298.15 K, x1 = 0.2001 | 1.113 mPa·s
298.15 K, x1 = 0.25 | 0.988 mPa·s
298.15 K, x1 = 0.3 | 0.896 mPa·s
298.15 K, x1 = 0.35 | 0.812 mPa·s
298.15 K, x1 = 0.4 | 0.752 mPa·s
298.15 K, x1 = 0.45 | 0.703 mPa·s
298.15 K, x1 = 0.5 | 0.659 mPa·s and 0.6917 mPa·s
298.15 K, x1 = 0.55 | 0.623 mPa·s
298.15 K, x1 = 0.6 | 0.594 mPa·s
298.15 K, x1 = 0.65 | 0.567 mPa·s
298.15 K, x1 = 0.7 | 0.545 mPa·s
298.15 K, x1 = 0.75 | 0.526 mPa·s
298.15 K, x1 = 0.8 | 0.511 mPa·s
298.15 K, x1 = 0.85 | 0.497 mPa·s
298.15 K, x1 = 0.9 | 0.488 mPa·s
298.15 K, x1 = 0.95 | 0.48 mPa·s
298.15 K, x2 = 0.1211 | 0.49 mPa·s
298.15 K, x2 = 0.2273 | 0.525 mPa·s
298.15 K, x2 = 0.3055 | 0.556 mPa·s
298.15 K, x2 = 0.3798 | 0.587 mPa·s
298.15 K, x2 = 0.4846 | 0.654 mPa·s
298.15 K, x2 = 0.5812 | 0.745 mPa·s
298.15 K, x2 = 0.6948 | 0.899 mPa·s
298.15 K, x2 = 0.7237 | 0.963 mPa·s
298.15 K, x2 = 0.8181 | 1.256 mPa·s
298.15 K, x2 = 0.9031 | 1.571 mPa·s
298.15 K, x2 = 0.955 | 1.803 mPa·s
303 K, x1 = 0.0983 | 1.07 mPa·s
303 K, x1 = 0.2085 | 0.86 mPa·s
303 K, x1 = 0.2911 | 0.71 mPa·s
303 K, x1 = 0.3728 | 0.58 mPa·s
303 K, x1 = 0.5014 | 0.56 mPa·s
303 K, x1 = 0.5976 | 0.54 mPa·s
303 K, x1 = 0.7483 | 0.48 mPa·s
303 K, x1 = 0.8001 | 0.47 mPa·s
303 K, x1 = 0.8939 | 0.45 mPa·s
308.15 K, x1 = 0.05 | 1.313 mPa·s
308.15 K, x1 = 0.1 | 1.142 mPa·s
308.15 K, x1 = 0.15 | 1.009 mPa·s
308.15 K, x1 = 0.2001 | 0.909 mPa·s
308.15 K, x1 = 0.25 | 0.824 mPa·s
308.15 K, x1 = 0.3 | 0.755 mPa·s
308.15 K, x1 = 0.35 | 0.697 mPa·s
308.15 K, x1 = 0.4 | 0.646 mPa·s
308.15 K, x1 = 0.45 | 0.606 mPa·s
308.15 K, x1 = 0.5 | 0.576 mPa·s
308.15 K, x1 = 0.55 | 0.549 mPa·s
308.15 K, x1 = 0.6 | 0.526 mPa·s
308.15 K, x1 = 0.65 | 0.507 mPa·s
308.15 K, x1 = 0.7 | 0.489 mPa·s
308.15 K, x1 = 0.75 | 0.474 mPa·s
308.15 K, x1 = 0.8 | 0.461 mPa·s
308.15 K, x1 = 0.85 | 0.452 mPa·s
308.15 K, x1 = 0.9 | 0.444 mPa·s
308.15 K, x1 = 0.95 | 0.44 mPa·s
313 K, x1 = 0.0983 | 0.86 mPa·s
313 K, x1 = 0.2085 | 0.7 mPa·s
313 K, x1 = 0.2911 | 0.61 mPa·s
313 K, x1 = 0.3728 | 0.54 mPa·s
313 K, x1 = 0.5014 | 0.48 mPa·s
313 K, x1 = 0.5976 | 0.46 mPa·s
313 K, x1 = 0.7483 | 0.45 mPa·s
313 K, x1 = 0.8001 | 0.43 mPa·s
313 K, x1 = 0.8939 | 0.43 mPa·s

CC(C)=O + CC(C)O
298.15 K, 101 kPa
Details | viscosity [mPa·s]
x2 = 0.152 | 0.347
x2 = 0.161 | 0.349
x2 = 0.292 | 0.389
x2 = 0.302 | 0.395
x2 = 0.452 | 0.486
x2 = 0.486 | 0.507
x2 = 0.488 | 0.513
x2 = 0.661 | 0.703
x2 = 0.812 | 1.071
x2 = 0.849 | 1.187

CC1COC(=O)O1 (stereo not given) + CC(C)O
viscosity [mPa·s], 101 kPa
Details | x1 = 0.0614 | x1 = 0.1283 | x1 = 0.2015 | x1 = 0.2818 | x1 = 0.3706 | x1 = 0.469 | x1 = 0.5787 | x1 = 0.7019 | x1 = 0.8412
298.15 K | 1.84 | 1.74 | 1.68 | 1.64 | 1.64 | 1.65 | 1.7 | 1.8 | 2.04
303.15 K | 1.6 | 1.53 | 1.46 | 1.44 | 1.45 | 1.48 | 1.54 | 1.65 | 1.85
308.15 K | 1.44 | 1.37 | 1.31 | 1.29 | 1.29 | 1.32 | 1.39 | 1.49 | 1.68

CCCc1ccccc1 + CC(CC(C)(C)C)CC(C)(C)C
viscosity [mPa·s], 102 kPa
Details | x1 = 0.101 | x1 = 0.2003 | x1 = 0.3007 | x1 = 0.4005 | x1 = 0.498 | x1 = 0.6 | x1 = 0.7 | x1 = 0.8001 | x1 = 0.9002
293.15 K | 1.24 | 1.16 | 1.09 | 1.03 | 0.983 | 0.939 | 0.905 | 0.877 | 0.861
303.15 K | 1.04 | 0.986 | 0.929 | 0.883 | 0.847 | 0.815 | 0.787 | 0.762 | 0.748
313.15 K | 0.901 | 0.852 | 0.809 | 0.773 | 0.744 | 0.712 | 0.689 | 0.666 | 0.654
323.15 K | 0.785 | 0.75 | 0.713 | 0.685 | 0.656 | 0.629 | 0.609 | 0.589 | 0.578

CC[N+](CC)(CC)CC.Cc1ccc(S(=O)(=O)[O-])cc1 + CC(O)CO
101 kPa, x1 = 0.2
Details | viscosity [mPa·s]
298.15 K | 66.9
303.15 K | 51.2
308.15 K | 39.8
313.15 K | 31.6
318.15 K | 25.5
323.15 K | 20.9

CCCc1ccccc1 + CCC(=O)O
308.15 K, 101.33 kPa
Details | viscosity [mPa·s]
x2 = 0.0799 | 0.7011
x2 = 0.1548 | 0.7021
x2 = 0.2233 | 0.7031
x2 = 0.275 | 0.7037
x2 = 0.411 | 0.7084
x2 = 0.519 | 0.7218
x2 = 0.6192 | 0.7357
x2 = 0.7099 | 0.753
x2 = 0.7906 | 0.7717
x2 = 0.8664 | 0.8012
x2 = 0.9357 | 0.8334

C1CCOC1 + CCC(C)O
viscosity [mPa·s], 101 kPa
Details | 298.15 K | 313.15 K
x1 = 0.0637 | 2.356 | 1.464
x1 = 0.1052 | 2.02 | 1.309
x1 = 0.1565 | 1.747 | 1.153
x1 = 0.2117 | 1.467 | 0.9942
x1 = 0.3052 | 1.155 | 0.8235
x1 = 0.4013 | 0.9585 | 0.7044
x1 = 0.4556 | 0.8592 | 0.6537
x1 = 0.4888 | 0.8108 | 0.6218
x1 = 0.5 | 0.8021 | –
x1 = 0.6054 | 0.6741 | 0.5395
x1 = 0.7009 | 0.5953 | 0.4897
x1 = 0.8036 | 0.533 | 0.4512
x1 = 0.8596 | 0.5129 | 0.4316
x1 = 0.9151 | 0.4818 | 0.4075
x1 = 0.9497 | 0.4749 | 0.4072

CC(=O)Oc1ccccc1C(=O)O + CCC(C)O
viscosity [mPa·s], 101 kPa
Details | x1 = 0.0007 | x1 = 0.00094 | x1 = 0.00118 | x1 = 0.00141 | x1 = 0.00165 | x1 = 0.00189 | x1 = 0.00236
293.15 K | 3.623 | 3.624 | 3.626 | 3.627 | 3.628 | 3.63 | 3.632
298.15 K | 3.014 | 3.015 | 3.015 | 3.016 | 3.017 | 3.018 | 3.02
303.15 K | 2.525 | 2.526 | 2.527 | 2.527 | 2.528 | 2.529 | 2.531
308.15 K | 2.12 | 2.121 | 2.122 | 2.123 | 2.123 | 2.124 | 2.125
310.15 K | 1.974 | 1.975 | 1.976 | 1.976 | 1.977 | 1.978 | 1.979
313.15 K | 1.792 | 1.793 | 1.794 | 1.795 | 1.796 | 1.797 | 1.798

COc1ccccc1 + CCC(C)O
viscosity [mPa·s], 101.33 kPa
Details | x1 = 0.0999 | x1 = 0.2001 | x1 = 0.3001 | x1 = 0.3998 | x1 = 0.5 | x1 = 0.6001 | x1 = 0.7 | x1 = 0.8002 | x1 = 0.9
303.15 K | 1.759 | 1.366 | 1.172 | 1.068 | 1.001 | 0.969 | 0.951 | 0.934 | 0.918
313.15 K | 1.335 | 1.068 | 0.932 | 0.862 | 0.843 | 0.831 | 0.816 | 0.803 | 0.792
323.15 K | 1.023 | 0.852 | 0.769 | 0.745 | 0.739 | 0.731 | 0.723 | 0.709 | 0.698
